Experimental data: patent publication US6506766B1 (Abbott Laboratories, priority 1998, dated 2003)
Where two headings read alike, the source gives them in different places.

Columns and labels:
[1] = target: T1, human glucocorticoid receptor-α [GRX] isoform (Homo sapiens, UniProt P04150); experiment: Radioligand binding with human glucocorticoid receptor cytosol ([3H]-dexamethasone competition)
T1 construct: host or cells: insect SF21 cells (baculovirus)
T1 sequence (P04150 1-777): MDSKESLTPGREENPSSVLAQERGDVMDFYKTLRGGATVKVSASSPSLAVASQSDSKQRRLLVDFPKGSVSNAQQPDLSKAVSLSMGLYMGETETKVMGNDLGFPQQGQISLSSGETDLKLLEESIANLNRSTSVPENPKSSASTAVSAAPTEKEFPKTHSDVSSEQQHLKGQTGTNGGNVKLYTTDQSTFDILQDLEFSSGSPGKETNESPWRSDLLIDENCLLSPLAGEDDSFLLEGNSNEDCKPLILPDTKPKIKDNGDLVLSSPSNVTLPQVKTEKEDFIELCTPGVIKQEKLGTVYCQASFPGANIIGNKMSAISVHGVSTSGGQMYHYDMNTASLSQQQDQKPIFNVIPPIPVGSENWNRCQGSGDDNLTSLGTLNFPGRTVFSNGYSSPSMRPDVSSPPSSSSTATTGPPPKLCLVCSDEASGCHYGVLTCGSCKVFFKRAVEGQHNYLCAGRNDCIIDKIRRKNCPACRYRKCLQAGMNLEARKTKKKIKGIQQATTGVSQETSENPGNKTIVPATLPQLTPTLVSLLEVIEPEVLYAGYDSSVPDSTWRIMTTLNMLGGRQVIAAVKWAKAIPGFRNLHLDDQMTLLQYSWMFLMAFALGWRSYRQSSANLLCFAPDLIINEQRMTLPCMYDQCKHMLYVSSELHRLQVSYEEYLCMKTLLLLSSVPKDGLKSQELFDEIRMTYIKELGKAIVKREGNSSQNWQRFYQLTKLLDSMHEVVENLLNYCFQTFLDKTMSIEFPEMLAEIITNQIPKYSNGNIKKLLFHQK

[2] = target: T2, human progesterone receptor-A [PRA] isoform (Homo sapiens, UniProt P06401); experiment: Radioligand binding with human progesterone receptor cytosol ([3H]-progesterone competition); conditions: read-out: Ki (nM) PR
T2 construct: host or cells: insect SF21 cells (baculovirus)
T2 sequence (P06401 1-769 isoform P06401-2): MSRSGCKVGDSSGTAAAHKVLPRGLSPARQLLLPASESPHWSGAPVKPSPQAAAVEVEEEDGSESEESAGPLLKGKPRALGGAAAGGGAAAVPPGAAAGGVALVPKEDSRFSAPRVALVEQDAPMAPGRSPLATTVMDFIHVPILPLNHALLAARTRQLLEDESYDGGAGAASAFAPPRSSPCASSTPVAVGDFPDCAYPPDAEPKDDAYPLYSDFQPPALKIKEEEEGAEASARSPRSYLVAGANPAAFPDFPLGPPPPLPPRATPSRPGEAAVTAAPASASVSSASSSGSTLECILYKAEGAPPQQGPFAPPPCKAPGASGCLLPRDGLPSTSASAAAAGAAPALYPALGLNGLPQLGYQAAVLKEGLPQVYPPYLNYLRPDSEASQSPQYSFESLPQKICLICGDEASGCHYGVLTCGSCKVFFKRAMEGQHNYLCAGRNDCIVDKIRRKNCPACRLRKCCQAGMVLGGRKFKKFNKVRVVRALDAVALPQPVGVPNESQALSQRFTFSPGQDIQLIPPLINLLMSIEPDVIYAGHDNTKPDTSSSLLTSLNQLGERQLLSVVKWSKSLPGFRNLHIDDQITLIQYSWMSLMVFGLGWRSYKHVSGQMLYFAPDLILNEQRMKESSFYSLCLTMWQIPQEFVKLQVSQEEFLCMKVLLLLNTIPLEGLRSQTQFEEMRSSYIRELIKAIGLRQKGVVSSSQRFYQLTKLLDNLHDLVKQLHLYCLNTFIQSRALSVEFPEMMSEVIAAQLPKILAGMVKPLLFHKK

[3] = PRA cytosol expressed in insect SF21 cells, [3H]Prog ~0.8 nM, 4° C. overnight, Ki by Cheng-Prusoff, KL ~4.5 nM
[4] = GRX cytosol expressed in insect SF21 cells, [3H]-Dex ~0.9 nM, 4° C. overnight, Ki by Cheng-Prusoff, KL ~[…], read-out: Ki (nM) GR

Compound | Ki [2, 3] [nM] | Ki [1, 4] [nM] | other results
2,5-Dihydro-9-hydroxy-10-methoxy-2,2,4-trimethyl-5-((2-fluorophenyl)methyl)-1H-[1]benzopyrano[3,4-f]quinoline [Example 385] | 170 | – | Ki ([1]; read-out: Ki (nM) GR): 0.9 nM
2,5-Dihydro-9-hydroxy-10-methoxy-5-propyl-2,2,4-trimethyl-1H-[1]benzopyrano[3,4-f]quinoline [Example 245] | – | – | Ki ([1]; read-out: Ki (nM) GR): 0.95 nM; Ki [2]: 119 nM
2,5-Dihydro-10-methoxy-5-(3,3-dimethyl-6-cyclohexenyl)-2,2,4-trimethyl-1H-[1]benzopyrano[3,4-f]quinoline [Example 146] | – | – | Ki ([1]; read-out: Ki (nM) GR): 8.3 nM; Ki [2]: 8300 nM
5-Butyl-2,5-dihydro-9-hydroxy-10-methoxy-2,2,4-trimethyl-1H-[1]benzopyrano[3,4-f]quinoline [Example 251] | – | – | Ki ([1]; read-out: Ki (nM) GR): 0.87 nM; Ki [2]: 163 nM
9,10-Dimethoxy-5-[3-cyclohexenyl]-methoxy-2,2,4-trimethyl-2,5-dihydro-1H-[1]benzopyrano[3,4-f]quinoline [Example 291] | – | – | Ki ([1]; read-out: Ki (nM) GR): 8.1 nM; Ki [2]: 592 nM
COc1cccc2c1-c1ccc3c(c1C(C1C=CCC(C)(C)C1)O2)C(C)=CC(C)(C)N3 (mixture of isomers) [Example 133] | 4870 | 3.6 | –
COc1cccc2c1-c1ccc3c(c1C(C1C=CCCC1)O2)C(C)=CC(C)(C)N3 (mixture of isomers) [Example 137] | 2410 | – | Ki ([1]; Ki (nM) GR): 5.5 nM
C=C1CCCCC1C1Oc2cccc(OC)c2-c2ccc3c(c21)C(C)=CC(C)(C)N3 (mixture of isomers) [Example 141, 2,5-Dihydro-10-methoxy-5-(1-methylene-2-cyclohexyl)-2,2,4-trimethyl-1H-[1]benzopyrano[3,4-f]quinoline] | ≥ 10000 | – | Ki ([1]; Ki (nM) GR): 10 nM
COc1c(O)ccc2c1-c1ccc3c(c1C(C1C=CCCC1)O2)C(C)=CC(C)(C)N3 (racemic) [Example 236] | 36.2 | 0.89 | –
COc1c(O)ccc2c1-c1ccc3c(c1[C@@H](C1CCCC1)O2)C(C)=CC(C)(C)N3 [Example 265, (+)(R)5-Cyclopentyl-2,5-dihydro-9-hydroxy-10-methoxy-2,2,4-trimethyl-1H-[1]benzopyrano[3,4-f]quinoline] | – | 767 | –
COc1c(O)ccc2c1-c1ccc3c(c1/C(=C/c1ccccc1)O2)C(C)=CC(C)(C)N3 [Example 365, Z-5-(Benzylidenyl)-9-hydroxy-10-methoxy-2,2,4-trimethyl-1H-2,5-dihydro] | 98 | – | –
CC1=CC(C)(C)Nc2ccc3c(c21)/C(=C/c1cccc(F)c1)Oc1ccc(O)c(Cl)c1-3 [Example 367, Z-5-(3-Fluorobenzylidenyl)-10-chloro-9-hydroxy-2,2,4-trimethyl-2,5-dihydro-1H-[1]benzopyrano[3,4-f]quinoline] | 7.6 | – | –
COc1c(O)ccc2c1-c1ccc3c(c1C(Cc1cc(F)cc(F)c1)O2)C(C)=CC(C)(C)N3 (centres unmarked) [Example 382, 2,5-Dihydro-9-hydroxy-10-methoxy-2,2,4-trimethyl-5-(3-5-difluorophenylmethyl)-1H-[1]benzopyrano[3,4-f]quinoline] | 150 | – | –
COc1cccc2c1-c1ccc3c(c1[C@H]([C@@H]1C=CCC1)O2)C(C)=CC(C)(C)N3 [Example 390, (−)(5S,3′S)2,5-Dihydro-10-methoxy-2,2,4-trimethyl-5-(cyclopenten-3-yl)-1H-[1]benzopyrano[3,4-f]quinoline] | 520 | – | –
COc1cccc2c1-c1ccc3c(c1[C@H]([C@@H]1C=CCCC1)O2)C(C)=CC(C)(C)N3 [Example 391, (−)(5S,3′S)2,5-Dihydro-10-methoxy-2,2,4-trimethyl-5-(cyclohexen-3-yl)-1H-[1]benzopyrano[3,4-f]quinoline] | – | – | Ki ([1]; Ki (nM) GR, GRX cytosol expressed in insect SF21 cells, [3H]-Dex ~0.9 nM, 4° C. overnight, Ki by Cheng-Prusoff, KL ~[…]): 1.7 nM

Second part, led by results:

Ki [2, 3] [nM] | Ki [1, 4] [nM] | Compound | other results
≥ 10000 | 270 | COc1cccc2c1-c1ccc3c(c1C(CC(O)CO)O2)C(C)=CC(C)(C)N3 (mixture of isomers) [Example 174, 2,5-Dihydro-10-methoxy-5-(1,2-dihydroxy-3-propyl)-2,2,4-trimethyl-1H-[1]benzopyrano[3,4-f]quinoline] | –
– | 6.6 | CCCC1Oc2cccc(OC)c2-c2ccc3c(c21)C(C)=CC(C)(C)N3 (centres unmarked) [Example 54, 2,5-Dihydro-10-methoxy-2,2,4-trimethyl-5-propyl-1H-[1]benzopyrano[3,4-f]quinoline] | –
– | 2.7 | C#CCC1Oc2cccc(OC)c2-c2ccc3c(c21)C(C)=CC(C)(C)N3 (centres unmarked) [Example 66, 2,5-Dihydro-10-methoxy-2,2,4-trimethyl-5-(2-propynyl)-1H-[1]benzopyrano[3,4-f]quinoline] | –
– | 4190 | COc1cccc2c1-c1ccc3c(c1C(CN)O2)C(C)=CC(C)(C)N3 (centres unmarked) [Example 206A, 2,5-Dihydro-10-methoxy-5-(aminomethyl)-2,2,4-trimethyl-1H-[1]benzopyrano[3,4-f]quinoline] | –
3050 | – | C=CC1Oc2cccc(OC)c2-c2ccc3c(c21)C(C)=CC(C)(C)N3 (centres unmarked) [Example 320, 2,5-Dihydro-10-methoxy-5-ethenyl-2,2,4-trimethyl-1H-[1]benzopyrano[3,4-f]quinoline] | –
– | 24 | COc1cccc2c1-c1ccc3c(c1C(C=C(C)C)O2)C(C)=CC(C)(C)N3 (centres unmarked) [Example 324, 2,5-Dihydro-10-methoxy-5-(2-methylpropenyl)-2,2,4-trimethyl-1H-[1]benzopyrano[3,4-f]quinoline] | –
192 | – | C=CCC1Oc2cccc(CO)c2-c2ccc3c(c21)C(C)=CC(C)(C)N3 (centres unmarked) [Example 329, 2,5-Dihydro-10-(2-hydroxymethyl)-5-(3-propenyl)-2,2,4-trimethyl-1H-[1]benzopyrano[3,4-f]quinoline] | –
53 | – | C=CCC1Oc2cccc(C=O)c2-c2ccc3c(c21)C(C)=CC(C)(C)N3 (centres unmarked) [Example 330, 2,5-Dihydro-10-formyl-5-(3-propenyl)-2,2,4-trimethyl-1H-[1]benzopyrano[3,4-f]quinoline] | –
589 | – | COc1cccc2c1-c1ccc3c(c1[C@H]([C@H]1C=CCC1)O2)C(C)=CC(C)(C)N3 [Example 393, (−)(5S,3′R)2,5-Dihydro-10-methoxy-2,2,4-trimethyl-5-(cyclopenten-3-yl)-1H-[1]benzopyrano[3,4-f]quinoline] | –
22.8 | – | C=CCC1Oc2c(Br)cc(O)c(Cl)c2-c2ccc3c(c21)C(C)=CC(C)(C)N3 (centres unmarked) [Example 397, 2,5-Dihydro-7-bromo-9-hydroxy-10-chloro-2,2,4-trimethyl-5-allyl-1H-[1]benzopyrano[3,4-f]quinoline] | –
– | 0.68 | CCCC1Oc2ccc(O)c(Cl)c2-c2ccc3c(c21)C(C)=CC(C)(C)N3 (centres unmarked) [Example 411, 2,5-Dihydro-9-hydroxy-10-chloro-2,2,4-trimethyl-5-propyl-1H-[1]benzopyrano[3,4-f]quinoline] | –
– | 33 | C=CCC1Oc2cccc(C=NO)c2-c2ccc3c(c21)C(C)=CC(C)(C)N3 (centres unmarked) [Example 446, 10-Carbaldehyde Oxime-5-(2-propenyl)-2,5-dihydro-2,2,4-trimethyl-1H-[1]benzopyrano[3,4-f]quinoline] | –
– | 7100 | C=CCC1Oc2cccc(OCc3ccccc3)c2-c2ccc3c(c21)C(C)=CC(C)(C)N3 (centres unmarked) [Example 447, 10-Benzyloxy-5-(2-propenyl)-2,5-dihydro-2,2,4-trimethyl-1H-[1]benzopyrano[3,4-f]quinoline] | –
